Results from ChEMBL document CHEMBL3046162, “Design, synthesis and evaluation of aminobenzophenone derivatives containing nitrogen mustard moiety as potential central nervous system antitumor agent” (Med Chem Res, 2013).
≈ marks a conversion by molar mass, not a printed value.

Tests used:
IMR-32 = assay: Cytotoxicity against human IMR32 cells after 72 hrs by MTT assay; type: functional, cell-based; conditions: IMR-32, 72 h
[1] = Cytotoxicity against human U87 cells after 72 hrs by MTT assay; type: functional, cell-based, U-87MG ATCC; conditions: U-87 MG
A549 = assay: Cytotoxicity against human A549 cells after 72 hrs by MTT assay; type: functional, cell-based; conditions: A549, 72 h
COLO 205 = assay: Cytotoxicity against human COLO205 cells after 72 hrs by MTT assay; type: functional, cell-based; conditions: COLO 205, 72 h
[2] = Alkylating activity of the compound in aqueous acetone solution assessed as half life of compound-NBP adduct formation after 30 mins by UV-Vis spectrophotometric analysis; type: physicochemical; conditions: buffer, 0.5 h

**Q.** With `CC(=O)O[C@@]12CO[C@@H]1C[C@H](O)[C@@]1(C)C(=O)[C@H](O)C3=C(C)[C@@H](OC(=O)[C@H](O)[C@@H](NC(=O)OC(C)(C)C)c4ccccc4)C[C@@](O)([C@@H](OC(=O)c4ccccc4)[C@H]21)C3(C)C.O.O.O` [DOCETAXEL] as the molecule, how does the IC50 (IMR-32) read?
**A.** 23.7 µg/mL

**Q.** And the IC50 [1]?
**A.** 20.7 µg/mL

**Q.** What about the IC50 (A549) of the same molecule?
**A.** 27.3 µg/mL

**Q.** What about the IC50 (COLO 205) of the same molecule?
**A.** 30.7 µg/mL

**Q.** Which IC50 (IMR-32) does the source give for `O=C(CN(CCCl)CCCl)Nc1ccc([N+](=O)[O-])cc1C(=O)c1ccccc1Cl` here?
**A.** 31.4 µg/mL (≈ 68.4 µM)

**Q.** What about the IC50 [1] of the same molecule?
**A.** 43.7 µg/mL (≈ 95.4 µM)

**Q.** And the IC50 (A549)?
**A.** 64.8 µg/mL (≈ 141 µM)

**Q.** And the IC50 (COLO 205)?
**A.** 33.4 µg/mL (≈ 72.8 µM)

**Q.** And the t1/2 [2]?
**A.** 9.5 min

**Q.** For `O=C(CN(CCCl)CCCl)Nc1ccc(Cl)cc1C(=O)c1ccccc1Cl`, which IC50 (IMR-32) is on record?
**A.** 30.8 µg/mL (≈ 68.8 µM)

**Q.** And the IC50 [1]?
**A.** 24.5 µg/mL (≈ 54.7 µM)

**Q.** What about the IC50 (A549) of the same molecule?
**A.** 34.6 µg/mL (≈ 77.3 µM)

**Q.** And the IC50 (COLO 205)?
**A.** 32.6 µg/mL (≈ 72.7 µM)

**Q.** And the t1/2 [2]?
**A.** 10.3 min

**Q.** With `O=C(O)CCCc1ccc(N(CCCl)CCCl)cc1` [CHLORAMBUCIL] as the molecule, how does the IC50 (IMR-32) read?
**A.** 20.1 µg/mL (≈ 66 µM)

**Q.** And the IC50 [1]?
**A.** 18.8 µg/mL (≈ 61.9 µM)

**Q.** What about the IC50 (A549) of the same molecule?
**A.** 21.1 µg/mL (≈ 69.3 µM)

**Q.** And the IC50 (COLO 205)?
**A.** 26.7 µg/mL (≈ 87.7 µM)

**Q.** For `O=C(CN(CCCl)CCCl)Nc1ccc(Cl)cc1C(=O)c1ccc(Cl)cc1`, which IC50 (IMR-32) is on record?
**A.** 31.1 µg/mL (≈ 69.5 µM)

**Q.** And the IC50 [1]?
**A.** 27.1 µg/mL (≈ 60.5 µM)

**Q.** And the IC50 (A549)?
**A.** 37.3 µg/mL (≈ 83.3 µM)

**Q.** And the IC50 (COLO 205)?
**A.** 28.7 µg/mL (≈ 64 µM)

**Q.** And the t1/2 [2]?
**A.** 8.9 min

**Q.** Which IC50 (IMR-32) does the source give for `O=C(CN(CCCl)CCCl)Nc1ccc([N+](=O)[O-])cc1C(=O)c1ccc(Cl)cc1` here?
**A.** 28.4 µg/mL (≈ 61.9 µM)

**Q.** What about the IC50 [1] of the same molecule?
**A.** 23.3 µg/mL (≈ 50.7 µM)

**Q.** And the IC50 (A549)?
**A.** 36.7 µg/mL (≈ 79.9 µM)

**Q.** What about the IC50 (COLO 205) of the same molecule?
**A.** 38.9 µg/mL (≈ 84.9 µM)

**Q.** And the t1/2 [2]?
**A.** 8.4 min

**Q.** With `O=C(CN(CCCl)CCCl)Nc1ccc([N+](=O)[O-])cc1C(=O)c1ccccc1` as the molecule, how does the IC50 (IMR-32) read?
**A.** 33.2 µg/mL (≈ 78.2 µM)

**Q.** And the IC50 [1]?
**A.** 29.5 µg/mL (≈ 69.4 µM)

**Q.** And the IC50 (A549)?
**A.** 64.8 µg/mL (≈ 153 µM)

**Q.** And the IC50 (COLO 205)?
**A.** 32.9 µg/mL (≈ 77.5 µM)

**Q.** What about the t1/2 [2] of the same molecule?
**A.** 11.8 min

**Q.** Which IC50 (IMR-32) does the source give for `O=C(CN(CCCl)CCCl)Nc1ccc(Cl)cc1C(=O)c1ccccc1` here?
**A.** 29.4 µg/mL (≈ 71 µM)

**Q.** And the IC50 [1]?
**A.** 29 µg/mL (≈ 70.1 µM)

**Q.** What about the IC50 (A549) of the same molecule?
**A.** 37.1 µg/mL (≈ 89.7 µM)

**Q.** What about the IC50 (COLO 205) of the same molecule?
**A.** 52.3 µg/mL (≈ 126 µM)

**Q.** And the t1/2 [2]?
**A.** 13.3 min
